# According to PMC8913300, “Two distinct classes of cochaperones compete for the EEVD motif in heat shock protein 70 to tune its chaperone activities” (The Journal of Biological Chemistry, 2022):
# Legend:
# Hsp72–DnaJB4 complex [1] = test: Luciferase refolding by Hsp72/DnaJB4 in the presence of TPR cochaperones; assay type: biochemical; conditions: 1 μM Hsp72, 100 nM denatured luciferase, 120 nM DnaJB4; CHIP titration or 10 μM TPR protein; 1 h at 37 °C
# Protocol: Experiments were performed as described ([14]). Briefly, Renilla luciferase (Promega) was denatured in 8 M GdnHCl for 2 h at room temperature. Hsp72 (1 μM) and denatured luciferase (100 nM) were diluted into a working concentration in buffer containing an ATP regenerating system (23 mM Hepes, 120 mM KAc, 1.2 mM MgAc, 15 mM DTT, 61 mM creatine phosphate, 35 units/ml creatine kinase, and 5 ng/μl bovine serum albumin, pH 7.4). A titration series of DnaJB4 was added, and the reaction was initiated with the addition of 2.5 mM ATP. For competition assays with DnaJB4, complexes of Hsp72 (1 μM), denatured luciferase (100 nM), and DnaJB4 (120 nM) were incubated with either a titration of CHIP or 10 μM of indicated TPR protein. In all cases, the assay was allowed to incubate for 1 h at 37 °C in white, 96-well flat-bottom plates (Corning 3990). Luminescence was measured using the SteadyGlo luminescence reagent (Promega), and percent refolded luciferase was calculated using a standard curve of 100 to 0 nM native luciferase.
# Hsp72–DnaJB4 complex [2] = test: CHIP inhibition of DnaJB4-stimulated Hsp72 ATPase activity; assay type: biochemical; conditions: 25 μM CHIP, 40-fold excess relative to DnaJB4 (625 nM)
# Protocol: ATPase assays were carried out using the malachite green assay as described ([14], [83]). In brief, 1 μM Hsp72 and various concentrations of DnaJB4 were added to clear 96-well plates, and the reactions were initiated by addition of 2.5 mM ATP. Reactions were allowed to proceed for 1 h at 37 °C, after which they were developed using malachite green reagent and quenched with sodium citrate. Plate absorbance was measured at 620 nm, and a standard curve of sodium phosphate was used to convert the absorbance values to pmol ATP/μM Hsp72/min. Vmax and Km, app were derived as fit parameters to a modified Michaelis–Menten model (ATPase rate=Vmax∗[DnaJB4]/(Km, app+[DnaJB4])) where Vmax reflects the maximal increased ATP hydrolysis conferred by DnaJB4 binding and Km,app represents the half-maximal concentration of DnaJB4 binding to and stimulating the ATPase activity of Hsp72.
# DnaJB4 = molecular target: T1, DnaJB4 (Homo sapiens, UniProt Q9UDY4); test: Fluorescence polarization saturation binding of Hsp72 tracer to DnaJB4; conditions: Fig. 8A right; FP saturation binding, 20 nM tracer, JDP binding buffer pH 8.0, 30 min room temperature; mean with 95% confidence interval, four replicates
# T1 construct: 6-His with TEV-cleavable linker (N, cleaved yes); made in house; host or cells: Escherichia coli BL21 (DE3) Rosetta
# Protocol: (§1) All FP experiments were performed in 384-well, black, low-volume, round-bottom plates at a final assay volume of 18 μl (Corning 4511). Polarization values in millipolarization units (mP) were measured at an excitation wavelength of 485 nm and an emission wavelength of 525 nm, with 100 flashes per read using a Spectramax M5 plate reader (Molecular Devices). All experiments were performed 2 times in quadruplicate. Experimental data were analyzed using GraphPad Prism 9. Saturation binding data were background subtracted, and curves were fit using the model [Agonist] versus response (three parameters). For competition experiments, data were background subtracted to tracer alone and normalized to DMSO control to determine relative tracer displacement.
# (§2) A sample of 20 nM Hsp72 tracers (FITC-Ahx-GSGPTIEEVD or FITC-Ahx-GSGPEIEEVD) was incubated with various concentrations of DnaJB4 (WT or QPD mutant) or CHIP in 2× dilutions (final [protein] = 110–0.013 μM) in binding buffer (JDP binding buffer = 50 mM Tris, 15 mM NaCl, 1 mM DTT, 0.01% Triton X-100, pH 8.0; CHIP binding buffer = 25 mM Hepes, 50 mM KCl, 0.01% Triton X-100, pH 7.4). The plate was covered from light and allowed to incubate at room temperature for 30 min prior to reading.
# DnaJB4 QPD mutant = molecular target: T2, DnaJB4 QPD mutant (Homo sapiens, UniProt Q9UDY4, H32Q); test: Fluorescence polarization saturation binding of Hsp72 tracer to DnaJB4 QPD mutant; conditions: Fig. 2D, FP saturation binding, 20 nM tracer, 30 min room temperature, mean with 95% confidence interval, four replicates
# T2 construct: 6-His with TEV-cleavable linker (N, cleaved yes); made in house; host or cells: Escherichia coli BL21 (DE3) Rosetta
# Protocol: as §1, §2
# T2 sequence (Q9UDY4 whole entry H32Q): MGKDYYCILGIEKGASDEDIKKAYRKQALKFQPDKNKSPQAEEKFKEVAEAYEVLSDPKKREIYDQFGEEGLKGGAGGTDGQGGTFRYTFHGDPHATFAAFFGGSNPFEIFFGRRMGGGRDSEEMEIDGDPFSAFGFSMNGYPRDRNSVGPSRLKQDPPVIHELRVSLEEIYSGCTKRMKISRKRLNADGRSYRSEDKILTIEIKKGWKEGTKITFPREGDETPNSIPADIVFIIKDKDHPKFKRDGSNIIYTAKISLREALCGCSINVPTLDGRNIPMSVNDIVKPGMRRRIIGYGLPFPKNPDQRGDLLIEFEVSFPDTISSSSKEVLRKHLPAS
# T1 sequence (Q9UDY4 whole entry): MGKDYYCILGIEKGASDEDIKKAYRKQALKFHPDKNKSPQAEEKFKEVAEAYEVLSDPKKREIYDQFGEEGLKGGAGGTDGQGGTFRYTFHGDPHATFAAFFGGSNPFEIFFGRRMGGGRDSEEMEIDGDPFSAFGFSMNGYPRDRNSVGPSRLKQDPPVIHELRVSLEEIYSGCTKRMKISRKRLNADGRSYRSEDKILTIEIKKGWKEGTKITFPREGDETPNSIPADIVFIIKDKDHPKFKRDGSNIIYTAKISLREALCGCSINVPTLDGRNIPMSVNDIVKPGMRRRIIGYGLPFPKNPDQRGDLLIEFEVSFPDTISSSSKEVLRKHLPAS
effect on client (luciferase) refolding by Hsp72–DnaJB4 (Hsp72–DnaJB4 complex [1]),inhibition of DnaJB4-stimulated ATPase activity (Hsp72–DnaJB4 complex [2]),Kd (DnaJB4) [µM],Kd (DnaJB4 QPD mutant) [µM],Compound
potent inhibitor,significant inhibition,–,–,"CHIP: C terminus of Hsc70 interacting protein, E3 ubiquitin ligase, TPR cochaperone, recombinant human"
–,–,1.97 ± 0.28,2.44 ± 0.28,CC[C@H](C)[C@H](NC(=O)[C@@H](NC(=O)[C@@H]1CCCN1C(=O)CNC(=O)[C@H](CO)NC(=O)CNC(=O)CCCCCNC(=S)Nc1ccc2c(c1)C(=O)OC21c2ccc(O)cc2Oc2cc(O)ccc21)[C@@H](C)O)C(=O)N[C@@H](CCC(=O)O)C(=O)N[C@@H](CCC(=O)O)C(=O)N[C@H](C(=O)N[C@@H](CC(=O)O)C(=O)O)C(C)C [Hsp72 tracer]
